Measurements from patent US20240245653A1, “PHARMACEUTICAL FORMULATIONS” (SPEPHARM AG, priority 2021, published 2024).
Read-outs that look alike come from different tables or passages of the source.

Key:
[1] = Dantrolene sodium solubility in water only solutions of HPBCD (visual inspection); assay type: physicochemical; conditions: for solubility: aqueous with cosolvent or surfactant or cyclodextrin; for Maximum concentration of dantrolene sodium that could be dissolved: <2 μm particle size
Protocol: This study was performed to determine the impact of HPBCD on the solubility of dantrolene Sodium. An initial comparison of different HPBCDs was carried out using HP5 and HP7 substituted variants (Cavitron™ W7, Ashland, Inc.), which have a typical degree of substitution (average number of hydroxypropyl groups per cyclodextrin molecule) of 4.1-5.1 and 6.0-8.0 respectively. (Equivalent products, such as Kleptose® HPB (Roquette), which is a low endotoxin burden (<10 IU/g) HP5 substituted β-cyclodextrin with typical molar substitution (i.e. per anhydro glucose subunit) of 0.65 (range 0.58 to 0.68), are also available for commercial scale manufacturing.)
Due to the larger molecular weight of the HP7 variant, more weight of excipient was required to achieve the same molar equivalent concentration compared with the HP5 variant. Overall, HP5 substituted β-cyclodextrin was preferred and it was therefore used for subsequent test formulations.
Further analysis was performed to determine the maximum possible concentration of dantrolene sodium, at different particle sizes, in water only solutions of HP5 substituted β-cyclodextrin. Commercially available samples of dantrolene sodium having particle sizes of <2 μm and <63 μm were tested. […] Results are shown in Table 1 below; DNa denotes dantrolene sodium.

[2] = Dantrolene sodium solubility with HPBCD and parenteral-compatible co-solvent addition (visual inspection); assay type: physicochemical; conditions: for Result (assessed by visual inspection): 7 Mol equivalent HP5 HPBCD solution
Protocol: This experiment was performed to determine the effects of different parenteral-compatible alcohol- and ketone-based co-solvents on dantrolene sodium solubility, in a 7 Mol equivalent HP5 substituted HPBCD solution. The results are shown in Table 2 below; DNa denotes dantrolene sodium.

With O=C1CN(/N=C/c2ccc(-c3ccc([N+](=O)[O-])cc3)o2)C([O-])=N1.[Na+] [DNa, dantrolene sodium] the “Result (assessed by visual inspection)” value ([1]; DNa 4.46 mg/mL anhydrous salt equivalent (5.16 mg/mL hemiheptahydrate equivalent), particle size <2 μm, 7 molar equivalent HP5 HPBCD, water only) was “Complete solution”, the “Result (assessed by visual inspection)” value ([1]; DNa 4.5 mg/mL anhydrous salt equivalent (5.33 mg/mL hemiheptahydrate equivalent), particle size <2 μm, 7 molar equivalent HP5 HPBCD, water only) was “Complete solution” and the “Result (assessed by visual inspection)” value ([1]; DNa 4.5 mg/mL anhydrous salt equivalent (5.35 mg/mL hemiheptahydrate equivalent), particle size <63 μm, 7 molar equivalent HP5 HPBCD, water only) was “Complete solution”. For the same compound, the “Result (assessed by visual inspection)” value ([1]; DNa 4.55 mg/mL anhydrous salt equivalent (5.36 mg/mL hemiheptahydrate equivalent), particle size <2 μm, 7 molar equivalent HP5 HPBCD, water only) was “Complete solution”, the “Result (assessed by visual inspection)” value ([1]; DNa 4.6 mg/mL anhydrous salt equivalent (5.40 mg/mL hemiheptahydrate equivalent), particle size <2 μm, 7 molar equivalent HP5 HPBCD, water only) was “Slightly Hazy Solution (Incomplete)” and the “Result (assessed by visual inspection)” value ([1]; DNa 4.65 mg/mL anhydrous salt equivalent (5.47 mg/mL hemiheptahydrate equivalent), particle size <2 μm, 7 molar equivalent HP5 HPBCD, water only) was “Hazy Solution (Incomplete)”. For the same compound, the “Result (assessed by visual inspection)” value ([1]; DNa 4.75 mg/mL anhydrous salt equivalent (5.58 mg/mL hemiheptahydrate equivalent), particle size <2 μm, 7 molar equivalent HP5 HPBCD, water only) was “Hazy Solution (Incomplete)”, the “Result (assessed by visual inspection)” value ([1]; DNa 4.75 mg/mL anhydrous salt equivalent (5.66 mg/mL hemiheptahydrate equivalent), particle size <63 μm, 7 molar equivalent HP5 HPBCD, water only) was “Hazy Solution (Incomplete)” and the “Result (assessed by visual inspection)” value ([1]; DNa 5.0 mg/mL anhydrous salt equivalent (5.95 mg/mL hemiheptahydrate equivalent), particle size <2 μm, 7 molar equivalent HP5 HPBCD, water only) was “Hazy Solution (Incomplete)”. The solubility ([1]; hemiheptahydrate equivalent, 9 Mol equivalents of HPBCD, HP5 variant, purified water, read-out: Solubility of dantrolene sodium) was 8500 µg/mL, the solubility ([1]; hemiheptahydrate equivalent, 9 Mol equivalents of HPBCD, HP7 variant, purified water, read-out: Solubility of dantrolene sodium) was 8500 µg/mL and the solubility ([1]; thermodynamic from solid, as anhydrous salt equivalent, <63 μm particle size, 7 molar equivalent HP5 HPBCD, water only, read-out: Solubility (maximum concentration of dantrolene sodium that could be dissolved)) was 4500 µg/mL. The “Maximum concentration of dantrolene sodium that could be dissolved” value ([1]; as anhydrous salt equivalent, 7 molar equivalent HP5 HPBCD, water only) was 4.55 mg/mL, the “Maximum concentration of dantrolene sodium that could be dissolved” value ([1]; as hemiheptahydrate equivalent, 7 molar equivalent HP5 HPBCD, water only) was 5.36 mg/mL and the “Solubility (maximum concentration of dantrolene sodium that could be dissolved)” value ([1]; as hemiheptahydrate equivalent, <63 μm particle size, 7 molar equivalent HP5 HPBCD, water only) was 5.35 mg/mL. The “Result (assessed by visual inspection)” value ([2]; DNa 4.5 mg/mL anhydrous salt equivalent, Benzyl Alcohol 1%) was “Moderate Excess”, the “Result (assessed by visual inspection)” value ([2]; DNa 4.5 mg/mL anhydrous salt equivalent, Ethanol Abs. 1%) was “Hazy - Small Excess” and the “Result (assessed by visual inspection)” value ([2]; DNa 4.5 mg/mL anhydrous salt equivalent, Glycerol 5.18%) was “Hazy - Small Excess”. For the same compound, the “Result (assessed by visual inspection)” value ([2]; DNa 4.5 mg/mL anhydrous salt equivalent, N,N-Dimethyl-formamide 2%) was “Hazy - Small Excess”, the “Result (assessed by visual inspection)” value ([2]; DNa 4.5 mg/mL anhydrous salt equivalent, Polyethylene Glycol 300 (PEG-300) 5%) was “Hazy - Small Excess” and the “Result (assessed by visual inspection)” value ([2]; DNa 4.5 mg/mL anhydrous salt equivalent, Polyethylene Glycol 400 (PEG-400) 5%) was “Hazy - Small Excess”. The “Result (assessed by visual inspection)” value ([2]; DNa 4.5 mg/mL anhydrous salt equivalent, Propylene Glycol 5%) was “Moderate Excess”, the “Result (assessed by visual inspection)” value ([2]; DNa 4.5 mg/mL anhydrous salt equivalent, Tert-Butanol 5%) was “Large Excess” and the “Result (assessed by visual inspection)” value ([2]; DNa 4.5 mg/mL anhydrous salt equivalent, Tetrahydrofuran 2%) was “Large Excess”. The “Result (assessed by visual inspection)” value ([2]; DNa 4.55 mg/mL anhydrous salt equivalent, N-Methyl-pyrrolidone 2, 4, 6%) was “Hazy - Small Excess”, the “Result (assessed by visual inspection)” value ([2]; DNa 4.75 mg/mL anhydrous salt equivalent, Tert-Butanol 5%) was “Large Excess” and the “Result (assessed by visual inspection)” value ([2]; DNa 5.0 mg/mL anhydrous salt equivalent, Benzyl Alcohol 2%) was “Large Excess”. The “Result (assessed by visual inspection)” value ([2]; DNa 5.0 mg/mL anhydrous salt equivalent, Ethanol Abs. 20%) was “Large Excess”, the “Result (assessed by visual inspection)” value ([2]; DNa 5.0 mg/mL anhydrous salt equivalent, Tert-Butanol 10%) was “Large Excess” and the “Result (assessed by visual inspection)” value ([2]; DNa 5.0 mg/mL anhydrous salt equivalent, Tert-Butanol 20%) was “Large Excess”. For the same compound, the “Effect of parenteral-compatible alcohol- or ketone-based solvents on dantrolene solubility in the presence of HPBCD” value ([2]; all 15 of the solvents tested, including PEG 300 and PEG 400) was “reduced dantrolene solubility”.
